The source made the active and inactive calls. The calls are words filed in the database; no cut-off is given here.
Columns and labels:
LNCaP [1] = test: Antiproliferative activity against androgen-sensitive human LNCAP cells assessed as inhibition of cell growth at 50 uM incubated for 48 hrs by sulforhodamine B assay relative to control; format: functional
LNCaP [2] = test: Antiproliferative activity against androgen-sensitive human LNCAP cells assessed as inhibition of DHT-induced cell growth at 50 uM incubated for 48 hrs by sulforhodamine B assay relative to control; format: functional
[3] = Cytotoxicity against Wistar rat PBMC assessed as inhibition of cell growth at 50 uM incubated for 24 hrs by sulforhodamine B assay relative to control; format: tissue-based; settings: for inhibition at 24 h, 50 µM: Wistar, peripheral blood mononuclear cells (PBMC); for Activity: pbmc, 24 h, 50 µM
LNCaP [4] = test: Antiproliferative activity against androgen-sensitive human LNCAP cells assessed as inhibition of testosterone-induced cell growth at 50 uM incubated for 48 hrs by sulforhodamine B assay relative to control; format: functional
LNCaP [5] = test: Growth inhibition of androgen-sensitive human LNCAP cells incubated for 48 hrs by sulforhodamine B assay; format: functional
PC-3 = test: Growth inhibition of androgen-insensitive human PC3 cells incubated for 48 hrs by sulforhodamine B assay; format: functional

SMILES	inhibition at 50 µM (LNCaP [1]) [%]	inhibition at 50 µM (LNCaP [2]) [%]	inhibition at 24 h, 50 µM [3] [%]	inhibition at 50 µM (LNCaP [4]) [%]	Activity [3]	inhibition (LNCaP [2])	GI50 (LNCaP [5]) [µM]	GI50 (PC-3) [µM]
Cc1ccc(NC(=O)[C@H]2CC[C@H]3[C@@H]4CCC5=CC(=O)CC[C@]5(C)[C@H]4CC[C@]23C)cc1	25.6	27.5	13	43.3				
C[C@]12CC[C@H]3[C@@H](CCC4=CC(=O)CC[C@@]43C)[C@@H]1CC[C@@H]2C(=O)Nc1ccc(Cl)cc1	-6.1	13.4		1.6	Non-Toxic			
COc1ccc(NC(=O)[C@H]2CC[C@H]3[C@@H]4CCC5=CC(=O)CC[C@]5(C)[C@H]4CC[C@]23C)cc1	48.7	29.7	7.9	38.6				
C[C@]12CC[C@H]3[C@@H](CCC4=CC(=O)CC[C@@]43C)[C@@H]1CC[C@@H]2C(=O)Nc1ccccc1	40.9	59.4	8.7	66.2				
CC(C)C(=O)Nc1ccc([N+](=O)[O-])c(C(F)(F)F)c1 [FLUTAMIDE]	-3.4	25.1		29.6	Non-Toxic			
CC(C)(C)NC(=O)[C@H]1CC[C@H]2[C@@H]3CC[C@H]4NC(=O)C=C[C@]4(C)[C@H]3CC[C@]12C [FINASTERIDE]	34.6		3.7	21.1		inactive		
CC(=O)N1CCN(c2ccc(OCC3COC(Cn4ccnc4)(c4ccc(Cl)cc4Cl)O3)cc2)CC1 (centres undefined) [KETOCONAZOLE]	82.7	68.2		76			25	11.7
C[C@]12CC[C@H]3[C@@H](CCC4=CC(=O)CC[C@@]43C)[C@@H]1CC[C@@H]2C(=O)Nc1cc(C(F)(F)F)cc(C(F)(F)F)c1	100	100	9.1	100			12.8	14.2
C[C@]12CC[C@H]3[C@@H](CCC4=CC(=O)CC[C@@]43C)[C@@H]1CC[C@@H]2C(=O)Nc1ccc(F)cc1	29.1	29	4.1	44.3				
C[C@]12CC[C@H]3[C@@H](CCC4=CC(=O)CC[C@@]43C)[C@@H]1CC[C@@H]2C(=O)Nc1nccs1	100	100	16.8	100			16	6.6
C[C@]12CC[C@H]3[C@@H](CCC4=CC(=O)CC[C@@]43C)[C@@H]1CC[C@@H]2C(=O)N1CCc2ccccc21	69.1	52.6		49.9	Non-Toxic			

Source: ChEMBL document CHEMBL4715749, “Synthesis of 17β-N-arylcarbamoylandrost-4-en-3-one derivatives and their anti-proliferative effect on human androgen-sensitive LNCaP cell line” (Eur J Med Chem, 2016)
